Results on ten molecules are retold here after publication PMC6155662, “Trypanocidal Activity of Quinoxaline 1,4 Di-N-oxide Derivatives as Trypanothione Reductase Inhibitors” (Molecules : A Journal of Synthetic Chemistry and Natural …, 2017).

Each structure is given as a SMILES string. Read-outs that look alike come from different tables or passages of the source.

The target in data set [1] is T1, recombinant T. cruzi TR (Trypanosoma cruzi, UniProt P28593).
T1 construct: made in house
In words: TR enzyme inhibition (NADPH consumption at 340 nm). Format: biochemical. To be noted: for inhibition at 20 µM: inhibitor 20 µM; for inhibition at 40 µM: inhibitor 40 µM; for inhibition at 60 µM: inhibitor 60 µM; for inhibition at 80 µM: inhibitor 80 µM, T-085 precipitates in the assay at 80 µM; for inhibition at 100 µM: inhibitor 100 µM; for inhibitory activity on TR: even when tested at 100 μM, 100 μM or 40 μM TS2. How it is done:
Trypanothione disulfide (TS2) and recombinant T. cruzi TR were prepared following published procedures. Recombinant human glutathione reductase (GR) was kindly provided by Dr. Heiner Schirmer, Heidelberg Germany. Stock solutions (5 mM) of the inhibitors were prepared in DMSO. The kinetic analyses were conducted using a Jasco V650 spectrophotometer. All enzymatic tests were performed in polystyrene optical cuvettes (10 × 4 × 45 mm). TR activity was measured at 25 °C in a total volume of 1 mL TR assay buffer (40 mM HEPES, 1 mM EDTA, pH 7.5 [47]) containing 100 μM NADPH and 5–10 mU enzyme in the absence and presence of the inhibitor. Each assay contained a total of 5% DMSO. The reaction was started by adding TS2 and NADPH consumption was followed at 340 nm.
Five compound concentrations were used ranging from 100–5 μM. All measurements were performed twice in three independent series. Enzyme activity was plotted versus increasing inhibitor concentrations. IC50 values were calculated using the four-parameter equation model 205 and the option “unlock” from the XLfit add-in (IDBS, Guildford, United Kingdom) for Excel (Microsoft Corporation, Redmond, WA, USA).
The type of inhibition and the inhibitor constants were derived from Lineweaver-Burk plot. The activity of TR was measured in the absence and presence of two to three constant concentrations of inhibitor varying the concentration of TS2 (20, 40, 60, 100 and 200 µM). The inhibitory constant Ki was calculated from the direct plot using nonlinear least-squares data fitting in Excel spreadsheet.

The subject of data set [2] is bloodstream trypomastigotes NINOA and INC-5 of T. cruzi. Details: method as in PMID 24691716. To be noted: 5 µg/mL (M2 = 14.73 µM, M8 = 17.98 µM, M6 = 14.91 µM); NINOA and INC-5 bloodstream trypomastigotes; cited from earlier work.
The test system of data set [3] is T. cruzi INC-5 epimastigotes. In words: Viability (MTT) assay on T. cruzi epimastigotes. Format: cell-based, Trypanosoma cruzi. The conditions noted are these: Trypanosoma cruzi, 24 h, mean and SD of triplicate. How it is done: In this study, two strains of T. cruzi isolated in Mexico were used. […] Epimastigotes were cultured in vitro in liver infusion-tryptose (LIT) medium supplemented with 10% heat inactivated fetal bovine serum (FBS) (Gibco) and 100 U/mL penicillin-streptomycin (In vitro S.A.), and incubated at 27 °C. CD1 mice, aged 6–8 weeks, were infected with T. cruzi to obtain bloodstream trypomastigote samples.
Viability assays of T. cruzi epimastigotes using 3-(4,5-dimethylthiazol-2-yl)-2,5-diphenyltetrazolium bromide (MTT) were performed. Briefly, the parasites were harvested during the exponential growth phase for a period of five days. In a 96-well microplate 1x10^6 epimastigotes were deposited in brain-heart infusion (BHI) medium supplemented with 10% FBS and 100 U/mL antibiotic-antifungal mixture (Gibco). […] Each well reached a final volume of 100 µL. Each condition was assessed in triplicate. The microplate was incubated for 24 h at 27 °C in darkness. Afterwards, 10 μL of a 5 mg/mL MTT solution was added and the plate was incubated for 20 h at 27 °C. Then 200 μL of 10% dodecyl sulfate (SDS)/0.1% HCl solution was added to dissolve formazan salts; the plate was incubated an additional 4 h. Finally, the plate was read at 570 nm in a spectrophotometer (Multiskan EX Thermo Electron, Taipei, Taiwan). The amount of viable cells was proportional to the amount of formazan produced. […] Later the results were converted to micromolar units. […] As a […] control, parasites were incubated only in culture medium with a 1% DMSO concentration, corresponding to the highest sample dilution of DMSO [34, 35, 36].

A short description of data set [4]: Cytotoxicity assay (Alamar Blue) on macrophages. Type of data set: cell-based, murine. The conditions noted are these: mouse, J774A.1 macrophages, mean and SD of triplicate. How it is done: The murine macrophage cell line J774.A1 was maintained in culture flasks with RPMI 1640 medium supplemented with 10% FBS, 1% MEM-NEAA medium (Gibco) and 100 U/mL antibiotic-antifungal mixture (Gibco). Cells were incubated at 37 °C with 5% CO2 and humidity. Trypsinized J774.A1 macrophages were washed and viability was assessed by the trypan blue dye (Sigma-Aldrich, Toluca, Edo de Mexico, Mexico) exclusion assay. In a 96-well microplate, 50,000 macrophages were seeded per well and a dose-response assay was performed. Compounds were evaluated using six-fold serial dilutions ranging from 100 µg/mL to 0.3 µg/mL of final concentration. Each compound was tested in triplicate. After 20 h incubation, Alamar Blue was added (10% v/v) and cells were incubated for an additional 4 h period. Results were obtained as previously described and CC50 was calculated. As a negative control of cytotoxicity, cells were incubated only in the presence of 0.1% DMSO [39, 40].

Data set [5] has as its system T. cruzi bloodstream trypomastigotes INC-5 strain. In words: microbe, parasite or virus in culture. Type of data set: cell-based. The conditions noted are these: Trypanosoma cruzi; for killing at 50 µg/mL: 50 μg/mL, 24 h at 4 °C, infected mouse blood, read-out: % Lysis at 50 μg/mL INC-5 Strain; for CC50: 24 h, bloodstream trypomastigotes, 24 h at 4 °C (called IC50 in abstract), read-out: LC50 INC-5 Strain. How it is done:
(§1) In this study, two strains of T. cruzi isolated in Mexico were used. T. cruzi NINOA strain (MHOM/MX/1994/NINOA) was obtained from a patient with acute Chagas disease and T. cruzi INC-5 (MHOM/MX/1994/INC5) was isolated from a patient in the chronic phase of the disease. Epimastigotes were cultured in vitro in liver infusion-tryptose (LIT) medium supplemented with 10% heat inactivated fetal bovine serum (FBS) (Gibco) and 100 U/mL penicillin-streptomycin (In vitro S.A.), and incubated at 27 °C. CD1 mice, aged 6–8 weeks, were infected with T. cruzi to obtain bloodstream trypomastigote samples. Animal experiments were performed according to Norma Oficial Mexicana (NOM-062-Z00-1999) published on 22 August, 2009.
(§2) CD1 female mice 6–8 weeks old were infected with T. cruzi bloodstream trypomastigotes of the INC-5 and NINOA strains. The course of infection continued for 4–6 weeks. At the peak of parasitemia blood was obtained by cardiac puncture using sodium heparin as an anticoagulant. The blood was adjusted to 1 × 10^6 bloodstream trypomastigotes/mL.
(§3) In each well of the 96-well plate, 195 μL of infected blood and 5 μL of quinoxaline 1,4-di-N-oxide derivatives or reference drug dilutions were seeded, with each well reaching a final volume of 200 µL. Each assay was performed in triplicate. Initially, all compounds were tested at 50 μg/mL. […] As a negative control of lysis, wells with untreated blood trypomastigotes were used, and as a positive control, wells with the reference drugs were used. The microplates were incubated at 4 °C for 24 h. Bloodstream trypomastigotes were quantified by the method of Brener-Pizzi, 5 μL of blood were placed on a slide and covered with a coverslip 13 × 13 mm. The mobile protozoa were counted in 15 fields at 40× magnification using an optical microscope. The percentage lysis was determined by comparing the remaining trypomastigotes against the negative control. LC50 was determined with the Probit statistical tool. The results were later converted to micromolar units.

The test system of data set [6] is T. cruzi bloodstream trypomastigotes NINOA strain. The data set is described as follows: microbe, parasite or virus in culture. Type of data set: cell-based. To be noted: Trypanosoma cruzi; for killing at 50 µg/mL: 50 μg/mL, 24 h at 4 °C, infected mouse blood, read-out: % Lysis at 50 μg/mL NINOA Strain. How it is done: as §1, §2, §3
Where [7] appears, read: 40 µM TS2, read-out: % Inhibition of TR at 40 µM [TS2].
Where [8] appears, read: 100 µM TS2, read-out: % Inhibition of TR at 100 µM [TS2].

T1 sequence (P28593 whole entry): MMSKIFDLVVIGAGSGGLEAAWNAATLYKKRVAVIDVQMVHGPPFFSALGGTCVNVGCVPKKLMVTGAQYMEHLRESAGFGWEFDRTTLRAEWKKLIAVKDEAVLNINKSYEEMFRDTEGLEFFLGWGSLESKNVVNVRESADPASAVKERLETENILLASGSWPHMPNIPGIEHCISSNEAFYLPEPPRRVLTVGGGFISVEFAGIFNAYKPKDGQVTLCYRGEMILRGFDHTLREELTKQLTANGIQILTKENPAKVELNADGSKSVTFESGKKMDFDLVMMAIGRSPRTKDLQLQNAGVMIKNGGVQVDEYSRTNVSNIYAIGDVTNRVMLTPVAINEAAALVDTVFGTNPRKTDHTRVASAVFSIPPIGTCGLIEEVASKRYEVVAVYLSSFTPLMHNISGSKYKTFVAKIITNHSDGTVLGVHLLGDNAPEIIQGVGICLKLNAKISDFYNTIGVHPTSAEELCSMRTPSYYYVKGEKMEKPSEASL

As for `COC(=O)c1ccc2c(c1)[n+]([O-])c(C(=O)c1ccccc1)c(C)[n+]2[O-]` [Compound T-003], in data set [1] (setting [7]), the inhibition at 20 µM was 6.6%, the inhibition at 40 µM was 9%, the inhibition at 60 µM was 14.8% and the inhibition at 80 µM came out at 20.5%. Moreover, in data set [1] (setting [7]), the inhibition at 100 µM was determined as 23.8%. Moreover, in data set [1] (setting [8]), the inhibition at 20 µM came out at 6%, the inhibition at 40 µM is 10%, the inhibition at 60 µM was 12% and the inhibition at 80 µM came to 18%. Besides, in data set [1] (setting [8]), the inhibition at 100 µM was determined as 19.3%. Also, the “% lysis at 5 µg/mL” value in data set [2] is recorded as “about 50%”.

`CC(C)OC(=O)c1ccc2c(c1)[n+]([O-])c(C(=O)C(C)(C)C)c(C(C)(C)C)[n+]2[O-]` [Compound T-107, Isopropyl 2-(tert-butyl-2-carbonyl)-3-tert-butylquinoxaline-7-carboxylate 1,4-di-N-oxide] gave an IC50 in data set [3] of 91.7 ± 10.5 µM. For the same molecule, the CC50 at 24 h in data set [4] is 164 ± 7.7 µM. The killing at 50 µg/mL in data set [5] stood at 5.32 ± 3.8%; in data set [6], 6.28 ± 4.7%.

With `COC(=O)c1ccc2c(c1)[n+]([O-])c(C(=O)OC(C)(C)C)c(C)[n+]2[O-]` [Compound T-021], in data set [1], the “inhibitory activity on TR” value was “no or negligible inhibitory activity”. Moreover, the inhibition at 40 µM in data set [1] (setting [7]) and in data set [1] (setting [8]) was 0% throughout. For the same molecule, the inhibition at 100 µM worked out at 7.5% in data set [1] (setting [7]) and 0% in data set [1] (setting [8]). Also, the “% lysis at 5 µg/mL” value in data set [2] was “about 50%”.

Consider `COC(=O)c1ccc2c(c1)[n+]([O-])c(C(N)=O)c(C)[n+]2[O-]` [Compound T-044], for which the “inhibitory activity on TR” value in data set [1] is on record as “no or negligible inhibitory activity”. In data set [1] (setting [7]), the inhibition at 40 µM came out at 0% and the inhibition at 100 µM turned out to be 0%. Besides, in data set [1] (setting [8]), the inhibition at 40 µM was 0% and the inhibition at 100 µM was determined as 0%. Moreover, the “% lysis at 5 µg/mL” value in data set [2] is “about 50%”.

Consider `CC(C)OC(=O)c1ccc2c(c1)[n+]([O-])c(C(=O)c1ccco1)c(C(F)(F)F)[n+]2[O-]` [Compound T-073, Isopropyl 2-(furyl-2-carbonyl)-3-trifluoromethylquinoxaline-7-carboxylate 1,4-di-N-oxide], for which the IC50 in data set [3] worked out at 33.7 ± 9.2 µM. This molecule yielded a CC50 at 24 h in data set [4] of 55.4 ± 2.9 µM. Moreover, the killing at 50 µg/mL was 22.1 ± 4.32% in data set [5] and 35 ± 4.5% in data set [6].

`O=C(Cn1ccnc1[N+](=O)[O-])NCc1ccccc1` [Bnz, benznidazole, reference compound] registered an IC50 in data set [3] of 42.3 ± 5.76 µM. The molecule also came in with a CC50 at 24 h in data set [4] of 352 ± 17.1 µM. Also, in data set [5], the CC50 amounted to 85.3 ± 16.7 µM and the killing at 50 µg/mL was 53.5 ± 5.6%. For the same molecule, in data set [6], the killing at 50 µg/mL amounted to 58.1 ± 4.5%.

In data set [3], `CCOC(=O)Cc1c(C(=O)OCC)[n+]([O-])c2cc(C(=O)OC(C)C)ccc2[n+]1[O-]` [Compound T-067, Isopropyl ethyl-3-(2-ethoxy-2-oxoethyl) quinoxaline-2,7-dicarboxylate 1,4-di-N-oxide] yielded an IC50 of 12.1 ± 0.4 µM. Moreover, the CC50 at 24 h in data set [4] is 44.4 ± 7.1 µM. In addition, the killing at 50 µg/mL was 14.4 ± 9.2% in data set [5] and 18.5 ± 2.2% in data set [6].

As to `CC(C)OC(=O)c1ccc2c(c1)[n+]([O-])c(C(=O)c1cccs1)c(C(F)(F)F)[n+]2[O-]` [Compound T-069, Isopropyl 2-(thiophene-2-carbonyl)-3-trifluoromethylquinoxaline-7-carboxylate 1,4-di-N-oxide], the IC50 in data set [3] came out at 4.95 ± 0.5 µM. The CC50 at 24 h in data set [4] amounted to 12.8 ± 0.6 µM. In data set [5], the CC50 is 111 ± 9.3 µM and the killing at 50 µg/mL worked out at 77.7 ± 9.3%. In data set [6] (24 h), this molecule yielded an LC50 of 98 ± 6.1 µM. The killing at 50 µg/mL in data set [6] was determined as 57.3 ± 2.8%.

Regarding `CCCOC(=O)c1ccc2c(c1)[n+]([O-])c(C(C)=O)c(C)[n+]2[O-]` [Compound T-126, n-Propyl 2-acetyl-3-methylquinoxaline-7-carboxylate 1,4-di-N-oxide], in data set [3], the IC50 was more than 163 µM. Also, the CC50 at 24 h in data set [4] is more than 327 µM. The killing at 50 µg/mL in data set [5] worked out at 0%; in data set [6] it was 17.7 ± 3.1%.

On to `Cc1c(C(=O)c2ccccc2)[n+]([O-])c2cc(C(=O)OC(C)C)ccc2[n+]1[O-]` [Compound T-098, Isopropyl 2-benzoyl-3-methylquinoxaline-7-carboxylate 1,4-di-N-oxide], for which the IC50 in data set [3] amounted to 142 ± 8.3 µM. Also, the CC50 at 24 h in data set [4] turned out to be 140 ± 8.1 µM. Further, the figures for the killing at 50 µg/mL in data set [5] and in data set [6] were 0.34 ± 0.6% and 6.89 ± 5.8%, respectively.
